The results in this text go back to article PMC6522510 (Nature Communications, 2019).

Values joined by “and” are separate entries in the source; they are usually repeats but may differ in a detail not shown here. Equal values may be shown once.

Test [1] deals with CMS. In words: Secondary dose-response HTS, Cell Titer Glo. The format is cell-based, human. To be noted: Homo sapiens, HTS, read-out: average effective concentration, CMS. In general terms: Cellular ATP, detected with luciferase, serves as a proxy for viable cell number.
In test [2] the test system is M07e. The test can be described thus: Secondary dose-response HTS, Cell Titer Glo. The format is cell-based, human. The note with it: Homo sapiens, M-07e; secondary high-throughput screen; M07e; read-out: average effective concentration, M07e.
The test system of test [3] is MOLM-13. In words: cells. To be noted: Homo sapiens, MOLM-13, 72 h, read-out: MOLM-13. The arrangement: species or system AML cell lines (8); Secondary HTS, 10-point dose-response in triplicate, Cell Titer Glo viability, four-parameter fit EC50.
Test [4] relates to MV4-11. The test can be described thus: cells. The arrangement: species or system AML cell lines (8); Secondary HTS, 10-point dose-response in triplicate, Cell Titer Glo viability, four-parameter fit EC50. The note with it: Homo sapiens, MV4-11, 72 h, read-out: MV4-11.
Test [5] concerns CHRF288-11. In words: cells. On the set-up: species or system AML cell lines (8); Secondary HTS, 10-point dose-response in triplicate, Cell Titer Glo viability, four-parameter fit EC50. To be noted: 72 h, read-out: CHRF288-11.
The subject of test [6] is CMK. In words: cells. On the set-up: species or system AML cell lines (8); Secondary HTS, 10-point dose-response in triplicate, Cell Titer Glo viability, four-parameter fit EC50. To be noted: Homo sapiens, CMK, 72 h, read-out: CMK.
The test system of test [7] is ML-2. In words: cells. On the set-up: species or system AML cell lines (8); Secondary HTS, 10-point dose-response in triplicate, Cell Titer Glo viability, four-parameter fit EC50. The note with it: Homo sapiens, ML-2, 72 h, read-out: ML-2.
Test [8] has as its system U937. The test can be described thus: cells. On the set-up: species or system AML cell lines (8); Secondary HTS, 10-point dose-response in triplicate, Cell Titer Glo viability, four-parameter fit EC50. The note with it: Homo sapiens, U-937, 72 h, read-out: U937.
The subject of test [9] is CMK. In words: Secondary dose-response HTS, Cell Titer Glo. The note with it: Homo sapiens, CMK, read-out: average effective concentration, CMK. The format is cell-based, human.
The test system of test [10] is M07e. The test can be described thus: cells. On the set-up: species or system AML cell lines (8); Secondary HTS, 10-point dose-response in triplicate, Cell Titer Glo viability, four-parameter fit EC50. To be noted: M-07e, 72 h, read-out: M07e.
The subject of test [11] is U937. In words: Secondary dose-response HTS, Cell Titer Glo. The format is cell-based, human. To be noted: Homo sapiens, U-937; secondary high-throughput screen; U937; read-out: average effective concentration, U937.
Test [12] relates to CHRF288-11. In words: Secondary dose-response HTS, Cell Titer Glo. The note with it: Homo sapiens, HTS; secondary high-throughput screen; CHRF288-11; read-out: average effective concentration, CHRF288-11. The format is cell-based, human.
Test [13] relates to CMS. The test can be described thus: cells. On the set-up: species or system AML cell lines (8); Secondary HTS, 10-point dose-response in triplicate, Cell Titer Glo viability, four-parameter fit EC50. The note with it: 72 h, read-out: CMS.
Test [14] relates to CMK. The arrangement: species or system AML cell lines (8); Primary HTS, single concentration about 10 uM, Cell Titer Glo viability; log10 luminescence, per cent inhibition relative to cycloheximide control. The note with it: 72 h, relative to cycloheximide control, log10 luminescence, inhibitor, CMK %inh, 10 µM.
The test system of test [15] is CMS. On the set-up: species or system AML cell lines (8); Primary HTS, single concentration about 10 uM, Cell Titer Glo viability; log10 luminescence, per cent inhibition relative to cycloheximide control. To be noted: 72 h, relative to cycloheximide control, log10 luminescence, inhibitor, CMS %inh, 10 µM.
In test [16] the test system is M07e. The arrangement: species or system AML cell lines (8); Primary HTS, single concentration about 10 uM, Cell Titer Glo viability; log10 luminescence, per cent inhibition relative to cycloheximide control. To be noted: 72 h, relative to cycloheximide control, log10 luminescence, inhibitor, M07e %inh, 10 µM.
Test [17] relates to ML-2. The arrangement: species or system AML cell lines (8); Primary HTS, single concentration about 10 uM, Cell Titer Glo viability; log10 luminescence, per cent inhibition relative to cycloheximide control. To be noted: 72 h, relative to cycloheximide control, log10 luminescence, inhibitor, ML-2 %inh, 10 µM.
The subject of test [18] is MOLM-13. The arrangement: species or system AML cell lines (8); Primary HTS, single concentration about 10 uM, Cell Titer Glo viability; log10 luminescence, per cent inhibition relative to cycloheximide control. The note with it: 72 h, relative to cycloheximide control, log10 luminescence, inhibitor, MOLM-13 %inh, 10 µM.
Test [19] relates to MV4-11. On the set-up: species or system AML cell lines (8); Primary HTS, single concentration about 10 uM, Cell Titer Glo viability; log10 luminescence, per cent inhibition relative to cycloheximide control. The note with it: 72 h, relative to cycloheximide control, log10 luminescence, inhibitor, MV4-11 %inh, 10 µM.
Test [20] has as its system U937. On the set-up: species or system AML cell lines (8); Primary HTS, single concentration about 10 uM, Cell Titer Glo viability; log10 luminescence, per cent inhibition relative to cycloheximide control. The note with it: 72 h, relative to cycloheximide control, log10 luminescence, inhibitor, U937 %inh, 10 µM.
Test [21] concerns MOLM-13. In words: Secondary dose-response HTS, Cell Titer Glo. The format is cell-based, human. To be noted: Homo sapiens; secondary high-throughput screen; MOLM-13; read-out: average effective concentration, MOLM-13.
For test [22], the system named is MV4-11. The test can be described thus: Secondary dose-response HTS, Cell Titer Glo. The format is cell-based, human. The note with it: Homo sapiens; secondary high-throughput screen; MV4-11; read-out: average effective concentration, MV4-11.
[23] abbreviates: secondary high-throughput screen, CMS.

Turning to `CCn1c(C(=O)N(C2CC2)C2CC2)cc2c3c(ncn3C)c(Nc3cc(C)n(C)n3)nc21` [BMS-911543], the EC50 is 5 µM in the test on CMS [1] (setting [23]); 8.7 µM in the test on M07e [2]; more than 10 µM in the test with MOLM-13 [3]; more than 10 µM in the test with MV4-11 [4]; more than 10 µM with CHRF288-11 [5]; more than 10 µM with CMK [6]. Besides, the EC50 in the test with ML-2 [7] and in the test on U937 [8] was more than 10 µM in each case.

As to `Cc1cc(Nc2cc(N3CCN(C)CC3)nc(/C=C/c3ccccc3)n2)n[nH]1` [ENMD-2076], the EC50 is 0.11 µM in the test on CMK [9]; 3.2 µM in the test on CMS [1]; 0.0955 µM in the test on MOLM-13 [3]; 0.125 µM in the test on MV4-11 [4]; more than 10 µM in the test on CHRF288-11 [5]; more than 10 µM in the test on M07e [10]. Besides, the EC50 with ML-2 [7] and in the test on U937 [8] was more than 10 µM throughout.

Take `CC(C)Oc1ccc(C(=O)N[C@H](CNC(=O)CN(C)C)Cc2ccc(-c3cn4cccc([C@H](C)O)c4n3)cc2)cc1Cl` [GSK-923295]: the EC50 in the test with CMS [1] is 0.011 µM; with M07e [2], 0.14 µM; in the test on U937 [11], 0.001 µM; in the test on MOLM-13 [3], more than 10 µM; in the test with MV4-11 [4] it was more than 10 µM; in the test on CHRF288-11 [5], more than 10 µM. Further, the EC50 in the test on CMK [6] is more than 10 µM; with ML-2 [7], 0.0077 µM.

On to `CC(C)C[C@H](NC(=O)CNC(=O)c1cc(Cl)ccc1Cl)B(O)O` [IXAZOMIB], for which the EC50 came out at 0.01 µM in the test with CHRF288-11 [12]; 0.007 µM in the test on CMK [9] (secondary high-throughput screen); 0.0056 µM in the test with CMS [1] (setting [23]); 0.011 µM in the test on M07e [2]; 0.01 µM in the test with U937 [11]; 0.0067 µM in the test on MOLM-13 [3]. For the same compound, the EC50 in the test on MV4-11 [4] is more than 10 µM; in the test with ML-2 [7], 0.0052 µM.

For `O=c1cc(N2CCOCC2)oc2c(-c3ccccc3)cccc12` [LY-294002], the EC50 in the test with CMS [1] (setting [23]), with M07e [2], with MOLM-13 [3], in the test with MV4-11 [4], in the test with CHRF288-11 [5] and with CMK [6] was more than 10 µM each time. In addition, the EC50 in the test on ML-2 [7] and in the test on U937 [8] was more than 10 µM each time.

With `Cc1ccc(C(=O)Nc2ccc(Oc3cc4cnn(C)c4cc3-c3cn[nH]c3)c(F)c2)c(=O)n1-c1ccc(F)cc1` [Merestinib], the EC50 with M07e [2] is 0.025 µM; with MOLM-13 [3], 0.0058 µM; with MV4-11 [4] it was more than 10 µM; in the test with CHRF288-11 [5] it was more than 10 µM; in the test with CMK [6], more than 10 µM; in the test on CMS [13] it was more than 10 µM. For the same compound, the EC50 in the test on ML-2 [7] and in the test on U937 [8] was more than 10 µM in each case.

As to `Cc1cn(-c2cc(NC(=O)c3ccc(C)c(Nc4nccc(-c5cccnc5)n4)c3)cc(C(F)(F)F)c2)cn1` [NILOTINIB], the EC50 in the test with M07e [2], in the test on MOLM-13 [3], in the test on MV4-11 [4], in the test with CHRF288-11 [5], with CMK [6] and in the test on CMS [13] was more than 10 µM in each case. Also, the EC50 in the test on ML-2 [7] and with U937 [8] was more than 10 µM in each case.

Take `CCCc1nc(C(C)(C)O)c(C(=O)OCc2oc(=O)oc2C)n1Cc1ccc(-c2ccccc2-c2nnn[nH]2)cc1` [OLMESARTAN MEDOXOMIL]: the EC50 in the test with M07e [2] is 5.8 µM; in the test with MOLM-13 [3], more than 10 µM; in the test with MV4-11 [4] it was more than 10 µM; with CHRF288-11 [5], more than 10 µM; in the test on CMK [6], more than 10 µM; in the test with CMS [13] it was more than 10 µM. Besides, the EC50 in the test with ML-2 [7] and in the test on U937 [8] was more than 10 µM throughout. In addition, the CMK %inh in the test on CMK [14] is 0.5387% and -8.221%. Besides, the CMS %inh with CMS [15] was -4.154% and -3.286%. In the test with M07e [16], the M07e %inh is -0.6363% and -1.428%. Further, the ML-2 %inh with ML-2 [17] was 0.6032% and 1.808%. For the same compound, in the test on MOLM-13 [18], the MOLM-13 %inh is 3.566% and -1.782%. The MV4-11 %inh with MV4-11 [19] is 1.21% and -0.1295%. Also, in the test with U937 [20], the U937 %inh was -0.6807% and -1.42%.

Turning to `O=C1CCC[C@@H]2[C@H]3CCC[N+]4([O-])CCC[C@@H](CN12)[C@@H]34` (stereo partly shown) [OXYMATRINE], the EC50 is 0.058 µM in the test on M07e [2]; more than 10 µM in the test with MOLM-13 [3]; more than 10 µM with MV4-11 [4]; more than 10 µM with CHRF288-11 [5]; more than 10 µM in the test on CMK [6]; more than 10 µM in the test on CMS [13]. In addition, the EC50 with ML-2 [7] and in the test with U937 [8] was more than 10 µM in each case.

`CO[C@H]1C[C@@H]2CC[C@@H](C)[C@@](O)(O2)C(=O)C(=O)N2CCCC[C@H]2C(=O)O[C@H]([C@H](C)C[C@@H]2CC[C@@H](O)[C@H](OC)C2)CC(=O)[C@H](C)/C=C(\C)[C@@H](O)[C@@H](OC)C(=O)[C@H](C)C[C@H](C)/C=C/C=C/C=C/1C` [SIROLIMUS]: the EC50 was more than 10 µM in the test on MOLM-13 [21]; 0.001 µM in the test with MV4-11 [22]; more than 10 µM in the test on CMS [1] (setting [23]); 0.001 µM in the test on U937 [11]; more than 10 µM in the test on CHRF288-11 [5]; more than 10 µM in the test with CMK [6]. The EC50 with M07e [10] and with ML-2 [7] was more than 10 µM in each case.

As for `COc1cccc2c1c(O)c(C(=O)N(C)c1ccc(C(F)(F)F)cc1)c(=O)n2C` [TASQUINIMOD], the EC50 in the test with M07e [2] was 1.2 µM; in the test with MOLM-13 [3] it was more than 10 µM; with MV4-11 [4], more than 10 µM; in the test on CHRF288-11 [5], more than 10 µM; in the test with CMK [6] it was more than 10 µM; with CMS [13], more than 10 µM. The EC50 with ML-2 [7] and in the test on U937 [8] was more than 10 µM each time.

As for `CS(=O)(=O)c1ccc(-c2cnc(N)c(C(=O)Nc3ccccc3)n2)cc1` [VE-821], the EC50 was 6.7 µM in the test on M07e [2]; more than 10 µM with MOLM-13 [3]; more than 10 µM in the test with MV4-11 [4]; more than 10 µM in the test on CHRF288-11 [5]; more than 10 µM in the test with CMK [6]; more than 10 µM with CMS [13]. For the same compound, the EC50 in the test with ML-2 [7] and in the test with U937 [8] was more than 10 µM in each case.
